Experimental data from ChEMBL document CHEMBL3271974, “Synthesis of the antileukemic compound N,N(11)-[5-[bis(2-chloroethyl)amino]-1, 3-phenylene]bisurea” (J Med Chem, 1976).

Legend:
[1] = tested on: P388; assay: Antitumor activity against mouse P388 cells allografted in mouse assessed as increase in survival rate at 120 mg/kg relative to control; assay type: functional
[2] = tested on: Mus musculus; assay: Toxicity in mouse allografted with mouse P388 cells at 120 mg/kg; assay type: organism-based; parameters: dose 120 mg/kg; conditions: in vivo
[3] = tested on: P388; assay: Antitumor activity against mouse P388 cells allografted in mouse assessed as increase in survival rate at 225 mg/kg relative to control; assay type: functional
[4] = tested on: Mus musculus; assay: Toxicity in mouse allografted with mouse P388 cells at 225 mg/kg; assay type: organism-based; parameters: dose 225 mg/kg; conditions: in vivo

SMILES	T/C [1]	Activity [2]	T/C [3]	Activity [4]
NC(=O)Nc1cc(NC(N)=O)cc(N(CCCl)CCCl)c1	194%	Non-toxic	–	–
CC(=O)Nc1cc(NC(C)=O)cc(N(CCCl)CCCl)c1	–	–	196%	Non-toxic
